Reference: US12024489B2, “Complex salt of rupestonic acid and alkaloid, preparation method therefor and use thereof” (XIAMEN INSTITUTE OF RARE EARTH MATERIALS, priority 2022, dated 2024)
One block for each compound: values may come before it.

Tests used:
[1] = system: cervical carcinoma cell line (Hela); test: In vitro anti-tumor activity test (CCK8), cervical carcinoma cell line; assay type: cell-based; details: Hela cells, 48 h incubation, CCK8, absorbance 450 nm
Description: (§1) The obtained Artemisia Rupestris complex salts were subjected to an in vitro anti-tumor activity test, in which the in vitro inhibitory activity of the Artemisia Rupestris complex salts on the lung adenocarcinoma cell line (A549) and cervical carcinoma cell line (Hela) was mainly researched. The specific test process was illustrated by the process for testing the lung adenocarcinoma cell line (A549):
(§2) The prepared Artemisia Rupestris complex salt was weighed, added into a 5 mL plastic centrifuge tube and diluted to
(§3) 1 mL with DMSO, to obtain a test sample at an initial concentration. Then the test sample at an initial concentration was serially diluted with DMSO to obtain test samples in 5 different concentration gradients in sequence, which were stored in a refrigerator at 4° C. for later use.
(§4) The lung adenocarcinoma cell line (A549) was incubated in an incubator for 24 h under the conditions of 37° C., 5% CO2, and saturated humidity. When the cells were in logarithmic growth phase, the culture supernatant was discarded, and the residue was digested with 0.25% trypsin-EDTA solution. Then, the digestion was terminated with high glucose medium. The cells were seeded in a 96-well plate with a cell density of 5000 cells/well. The 96-well plate was incubated in an incubator for 24 h. Then the cell culture supernatant in the 96-well plate was discarded. 100 μL of high glucose medium was added to the 96-well plate, and test samples at different concentrations were added to wells at 1 μL/well (5 duplicate wells were set for each concentration). After the plate was incubated in an incubator for 48 h under the conditions of 37° C., saturated humidity and 5% CO2, 10 μL of CCK8 was added to each well, and the plate was then incubated in the incubator at 37° C. for 1-4 h. The absorbance of each well at 450 nm was measured on a multifunctional microplate reader. Inhibition rate %=[(ODcontrol cells−ODtreatment cells)/(ODcontrol cells−ODblank)]×100. Negative control was a mixed solution of Vhigh glucose medium and VDMSO at a ratio of 10:1.
The process for testing the inhibition of those compounds on the cervical cancer cell line (Hela) was the same as above.

[2] = system: lung adenocarcinoma cell line (A549); test: In vitro anti-tumor activity test (CCK8), lung adenocarcinoma cell line; assay type: cell-based; details: A549 cells, 48 h incubation, CCK8, absorbance 450 nm
Description: as §1, §2, §3, §4

Compound: O=C1CCC[C@@H]2[C@H]3CCCN4CCC[C@@H](CN12)[C@@H]34 [Matrine]
IC50 ([1]; Homo sapiens): 774 µM
IC50 ([2]; Homo sapiens): 6370 µM

Compound: complex salt of rupestonic acid and matrine
IC50 [1]: 11.8 µM
IC50 [2]: 1.49 µM

Compound: O=C1C=CC[C@@H]2[C@H]3CCCN4CCC[C@@H](CN12)[C@@H]34 [Sophocarpine]
IC50 ([1]; Homo sapiens): 122 µM
IC50 ([2]; Homo sapiens): 241 µM

Compound: complex salt of rupestonic acid and sophoridine
IC50 [1]: 17.9 µM
IC50 [2]: 61.3 µM

Compound: complex salt of rupestonic acid and oxymatrine
IC50 [1]: 25.2 µM

Compound: O=C1CCC[C@@H]2[C@H]3CCCN4CCC[C@H](CN12)[C@@H]34 [Sophoridine]
IC50 ([1]; Homo sapiens): 1490 µM
IC50 ([2]; Homo sapiens): 16000 µM

Compound: complex salt of rupestonic acid and sophocarpine
IC50 [1]: 115 µM
IC50 [2]: 714 µM

IC50 (μM) Hela [1]: Inactive
IC50 (μM) A549 [2]: Inactive
Compound: C=C(C(=O)O)[C@H]1CC[C@H](C)[C@@H]2CC(=O)C(C)=C2C1 [Rupestonic acid]

IC50 ([1]; Homo sapiens): 0.95 µM
Compound: O=C1CCC[C@@H]2[C@H]3CCC[N+]4([O-])CCC[C@@H](CN12)[C@@H]34 (stereo partly shown) [Oxymatrine]
